The source of these data is patent US20110039763A1, “TARGETED ANTIMICROBIAL MOIETIES” (C3 JIAN, INC., priority 2009, published 2011).

Assay [1] deals with microorganisms. As to the kind of experiment: Morphology, biofilm and growth disrupting peptides (Table 5). Format: cell-based. More on the design: key: A: Peptide aggregates; B: Less hyphal formation; Clumps; Diffuse clumps and small polyps; F: Diffuse growth; H: Thin; I: Growth inhibition; Microcolony formation; Rippled; Small polyps; Thick; W: Halo formation on top, microlonies on bottom. An excerpt: In certain embodiments peptides that induce alterations in phenotype or other biological activities can also be used as antimicrobial effector moieties.

For assay [2], the system named is microorganisms. Briefly: Peptide activities: targeting/binding, antimicrobial, growth or phenotype altering (Tables 7, 8). It counts as cell-based. The following applies: peptides having multiple activities.
In assay [3] the test system is microorganisms. As to the kind of experiment: Targeting peptide binding to target microorganisms (Tables 3, 10, 12). The conditions noted are these: microorganism(s) the targeting peptide binds; binding in aqueous buffers varied with peptide solubility, preferably 1x PBS.

“Also recorded” adds a separate entry of the source.

For “PF-074: peptide having multiple activities (chain 1 RDIHPIYFMTKD; chain 2 RDIHPIYFMTKD; Peptide with targeting and/or antimicrobial activity)”, in assay [1], the “Organism, effect: MRSA” value was “MRSA (M)” and the “Organism, effect: S. epidermidis” value is reported as “S. epidermidis (D)”. Also, the Activities result in assay [2] was “G B”. For the same substance, the “Target(s)” value in assay [3] is “S. epidermidis and M. luteus and MRSA”.
Turning to “PF-099: peptide having multiple activities (chain 1 EIIAYLEGRFANA; chain 2 EIIAYLEGRFANA; Peptide with targeting and/or antimicrobial activity)”, in assay [1], the “Organism, effect: C. jeikeium” value is listed as “C. jeikeium (C)” and the “Organism, effect: S. epidermidis” value was “S. epidermidis (D)”. In addition, in assay [2], the Activities result was “G B”. The “Target(s)” value in assay [3] is reported as “S. epidermidis; also recorded: M. luteus; also recorded: E. coli; also recorded: C. jeikeium”.
Regarding “PF-123: peptide having multiple activities (chain 1 TTRPQVAEDRQLDDALKETFPASDPISP; chain 2 TTRPQVAEDRQLDDALKETFPASDPISP; Peptide with targeting and/or antimicrobial activity)”, the “Organism, effect: S. epidermidis” value in assay [1] is “S. epidermidis (M)”. In addition, the Activities entry in assay [2] is recorded as “G B”. For the same substance, in assay [3], the “Target(s)” value is “M. luteus; also recorded: E. coli”.
As for “PF-128: peptide having multiple activities (chain 1 GIKVVAARFEEIQFSENFDSIILA; chain 2 GIKVVAARFEEIQFSENFDSIILA; Peptide with targeting and/or antimicrobial activity)”, the “Organism, effect: P. aeruginosa” value in assay [1] (P. aeruginosa) is reported as “P. aeruginosa (C)”. The “Organism, effect: S. epidermidis” value in assay [1] is “S. epidermidis (D)”. Also, in assay [2], the Activities result is “G B”. Besides, the “Target(s)” value in assay [3] is on record as “M. luteus; also recorded: P. aeruginosa; also recorded: E. faecalis”.
“PF-129: peptide having multiple activities (chain 1 MKLLARDPWVCAWNDIW; chain 2 MKLLARDPWVCAWNDIW; Peptide with targeting and/or antimicrobial activity)”: in assay [1], the “Organism, effect: C. jeikeium” value was “C. jeikeium (R)” and the “Organism, effect: S. epidermidis” value is on record as “S. epidermidis (M)”. The Activities result in assay [2] is reported as “G B”. In addition, the “Target(s)” value in assay [3] is “S. epidermidis and MRSA and E. faecalis and C. jeikeium and C. jejuni”.
As for “PF-133: peptide having multiple activities (chain 1 GDPTAGQKPVECP; chain 2 GDPTAGQKPVECP; Peptide with targeting and/or antimicrobial activity)”, the “Organism, effect: C. jeikeium” value in assay [1] is recorded as “C. jeikeium (R)”. Moreover, the Activities result in assay [2] is “G B”. Besides, the “Target(s)” value in assay [3] is on record as “S. epidermidis; also recorded: C. jeikeium; also recorded: C. jejuni; also recorded: M. smegmatis”.
With “PF-135: peptide having multiple activities (chain 1 PPARPARIPQTPTLHGASLFRQRS; chain 2 PPARPARIPQTPTLHGASLFRQRS; Peptide with targeting and/or antimicrobial activity)”, in assay [1], the “Organism, effect: C. jeikeium” value is given as “C. jeikeium (R)”. Moreover, the Activities entry in assay [2] was “G B”. In assay [3], the “Target(s)” value is “S. epidermidis and M. luteus and E. coli and P. aeruginosa and MRSA and C. jeikeium and M. smegmatis”.
“PF-144: peptide having multiple activities (chain 1 RSGQPVGRPSRRAWLR; chain 2 RSGQPVGRPSRRAWLR; Peptide with targeting and/or antimicrobial activity)”: in assay [1], the “Organism, effect: S. pneumoniae” value is reported as “S. pneumoniae (H)”. Besides, in assay [2], the Activities entry was “G B”. For the same substance, the “Target(s)” value in assay [3] was “S. epidermidis and M. luteus and E. coli and C. albicans and MRSA and S. pneumoniae and E. faecalis and C. jeikeium”.
Take “PF-149: peptide having multiple activities (chain 1 GKVSVLTRVPRSLGGAPANQ; chain 2 GKVSVLTRVPRSLGGAPANQ; Peptide with targeting and/or antimicrobial activity)”: the “Organism, effect: MRSA” value in assay [1] was “MRSA (H)”. The Activities result in assay [2] was “G B”. Also, the “Target(s)” value in assay [3] was “S. epidermidis and M. luteus and E. coli and MRSA and C. jeikeium”.
For the substance “PF-153: peptide having multiple activities (chain 1 GILARADCSQIA; chain 2 GILARADCSQIA; Peptide with targeting and/or antimicrobial activity)”, in assay [1], the “Organism, effect: C. jeikeium” value was “C. jeikeium (C)” and the “Organism, effect: S. epidermidis” value was “S. epidermidis (M)”. In assay [2], the Activities entry is “G B”. In assay [3], the “Target(s)” value is “M. luteus and P. mirabilis and E. coli and MRSA”.
On to “PF-156: peptide having multiple activities (LITAEQPATAPIAGK; Peptide with targeting and/or antimicrobial activity)”, for which the “Organism, effect: MRSA” value in assay [1] is “MRSA (H)”. For the same substance, the Activities result in assay [2] is “G B”. The “Target(s)” value in assay [3] is on record as “S. epidermidis; also recorded: C. jeikeium”.
Take “PF-164: peptide having multiple activities (EEVSRALAGIGLGLGCRIG; Peptide with targeting and/or antimicrobial activity)”: the “Organism, effect: C. jeikeium” value in assay [1] was “C. jeikeium (R)”. For the same substance, the Activities result in assay [2] is recorded as “G B”. Besides, in assay [3], the “Target(s)” value is listed as “S. epidermidis; also recorded: M. luteus; also recorded: E. coli; also recorded: C. jeikeium”.
With “PF-171: peptide having multiple activities (TQVTLCRTW; Peptide with targeting and/or antimicrobial activity)”, in assay [1], the “Organism, effect: B. subtilis” value was “B. subtilis (D)”; the “Organism, effect: C. jejuni” value is “C. jejuni (R)”; the “Organism, effect: M. luteus” value is on record as “M. luteus (R)”; the “Organism, effect: MRSA” value is on record as “MRSA (M)”. In addition, in assay [1], the “Organism, effect: S. epidermidis” value is recorded as “S. epidermidis (R)” and the “Organism, effect: S. pneumoniae” value was “S. pneumoniae (D)”. Further, in assay [2], the Activities entry is “G B”. For the same substance, in assay [3], the “Target(s)” value is given as “S. epidermidis; also recorded: E. coli; also recorded: P. aeruginosa; also recorded: S. pneumoniae”.
“PF-173: peptide having multiple activities (AGRTAIVQGGG; Peptide with targeting and/or antimicrobial activity)”: in assay [1], the “Organism, effect: C. jeikeium” value is reported as “C. jeikeium (D)” and the “Organism, effect: S. epidermidis” value is recorded as “S. epidermidis (A)”. Besides, in assay [2], the Activities entry is “G B”. Also, in assay [3], the “Target(s)” value is “S. epidermidis; also recorded: M. luteus; also recorded: P. mirabilis; also recorded: E. coli; also recorded: P. aeruginosa; also recorded: C. albicans; also recorded: C. jeikeium; also recorded: C. jejuni”.
Regarding “PF-175: peptide having multiple activities (RRRPAGQRPEKASQAMIAA; Peptide with targeting and/or antimicrobial activity)”, in assay [1], the “Organism, effect: B. subtilis” value is given as “B. subtilis (D)”; the “Organism, effect: C. jejuni” value is given as “C. jejuni (M)”; the “Organism, effect: M. luteus” value was “M. luteus (S)”; the “Organism, effect: S. pneumoniae” value is reported as “S. pneumoniae (A)”. Besides, the “Organism, effect: C. albicans” value in assay [1] (C. albicans) is reported as “C. albicans (B)”. In addition, the Activities entry in assay [2] is recorded as “G B”. Besides, in assay [3], the “Target(s)” value is “S. epidermidis; also recorded: E. faecalis”.
For “PF-176: peptide having multiple activities (RLTSNQFLTRITPFVFAQH; Peptide with targeting and/or antimicrobial activity)”, in assay [1], the “Organism, effect: C. jeikeium” value was “C. jeikeium (D)”; the “Organism, effect: M. luteus” value is reported as “M. luteus (C)”; the “Organism, effect: S. epidermidis” value was “S. epidermidis (C)”. Moreover, the Activities result in assay [2] is given as “G B”. Also, the “Target(s)” value in assay [3] is “S. epidermidis and M. luteus and P. mirabilis and E. coli and C. albicans and MRSA and E. faecalis and C. jeikeium”.
With “PF-180: peptide having multiple activities (SGLGDLGFSSEAK; Peptide with targeting and/or antimicrobial activity)”, the “Organism, effect: S. epidermidis” value in assay [1] was “S. epidermidis (C)”. Also, in assay [2], the Activities entry is reported as “G B”. Further, the “Target(s)” value in assay [3] is “S. epidermidis and M. luteus and P. aeruginosa and C. albicans and MRSA and E. faecalis and C. jejuni and M. smegmatis”.
As to “PF-186: peptide having multiple activities (DADKNLSLERDRFAWRVAAP; Peptide with targeting and/or antimicrobial activity)”, in assay [1], the “Organism, effect: C. jeikeium” value is “C. jeikeium (A)” and the “Organism, effect: S. epidermidis” value is reported as “S. epidermidis (C)”. Further, in assay [2], the Activities entry was “G B”. In addition, the “Target(s)” value in assay [3] is “S. epidermidis and M. luteus and E. coli and P. aeruginosa and MRSA and C. jeikeium”.
Turning to “PF-188: peptide having multiple activities (ARTFAGRLGTRYFGGLMRSTKA; Peptide with targeting and/or antimicrobial activity)”, in assay [1], the “Organism, effect: C. jeikeium” value was “C. jeikeium (H)”. Moreover, the Activities result in assay [2] is listed as “G B”. The “Target(s)” value in assay [3] is “S. epidermidis and M. luteus and E. coli and C. albicans and MRSA and E. faecalis”.
Consider “PF-191: peptide having multiple activities (QFCNFAWLFLASNNAQVSALA; Peptide with targeting and/or antimicrobial activity)”, for which, in assay [1], the “Organism, effect: C. jeikeium” value is reported as “C. jeikeium (R)”; the “Organism, effect: MRSA” value is reported as “MRSA (H)”; the “Organism, effect: S. epidermidis” value was “S. epidermidis (A)”. For the same substance, the Activities result in assay [2] was “G B”. In addition, the “Target(s)” value in assay [3] was “E. coli; also recorded: P. aeruginosa; also recorded: C. jejuni”.
